Here are results for 16 compounds from PMC4428838, “Optimization of Invasion-Specific Effects of Betulin Derivatives on Prostate Cancer Cells through Lead Development” (PLoS ONE, 2015).

Molecules are shown by their SMILES.

Holding throughout (type): cell-based
One experiment has as its system PC-3 cells. Kind of experiment: Primary 3D screen in Matrigel ECM, morphometric image analysis (AMIDA) of invasion, growth and cell death. The note with it: PC-3 in 3D Matrigel; for anti-invasive effects in 3D culture (in words): 0.03-1 μM. As to the method:
Three standard of care compounds widely used against PrCa were added as controls; namely, the androgen receptor antagonist enzalutamide (MDV3100), the C17α-hydroxylase/C17,20-lyase inhibitor abiraterone (Zytiga), and the classic mitotic inhibitor paclitaxel. Treatments started at day 4, when well-differentiated round acini were established.
The live 3D cell cultures were then stained with reactive dyes Calcein AM to detect living, and ethidium homodimer to detect dead cells. Images (Fig 4A) were acquired with confocal microscope and image data were analyzed with the AMIDA software. The principles of morphometric image analysis are briefly outlined in S2 Fig.
Fig 4 Primary 3D screen. PC-3 cells were cultured in 3D Matrigel ECM for 4 days and treated for 6 days with 25 betulin derivatives (from 2D high throughput screens), DMSO/vehicle control, and three reference compounds. A) Representative maximum intensity projections of confocal microscope stack images for selected compound treatments at 300 nM concentration (5× objective, scale 100 μm). B) Three graphs showing the relative impact on three morphometric parameters for 7 betulin derivatives, DMSO control, and one control compound (paclitaxel). […] C) Hierarchical clustering was done using three morphological parameters derived from PC3 organoids: spheroid size (area), complexity and the number of dead cells. D) Wound healing curves of the two betulin derivatives 4 and 20, highlighting the 50% cut-off level (orange dashed line).
Next, statistical analyses were performed to interpret the complex image data (Fig 4B and 4C). For simplicity, we focused on only three, basic morphologic parameters from the multiparametric AMIDA readout (Fig 4B): 1) Area (indicating growth of organoids), 2) structural Complexity (as a measure of the intensity of invasion), and 3) Relative Area of dead cells within organoids (red signal as a measure of cytoxicity or apoptosis). Area (Size of organoids; Fig 4B, upper panel) was measured as the number of pixels within a segmented structure. […] Shape Complexity (Fig 4B, middle panel) was obtained using the structure size (area) and perimeter (number of border pixels). The more regular the shape of an organoid, the closer it is to a perfect circle, thus minimizing the perimeter relative to object size. […] Deviations from this average (residuals) were interpreted as a measure for the shape complexity of organoids. As a logical lower limit for this measure (represented by a perfect circle), we adjusted the intercept (height level) of the regression line to render all returned residuals as positive numbers.
All 3D cultures were done in growth factor-free Matrigel Basement-membrane Matrix (Corning Inc., New York, NY, USA) using 96-well Angiogenesis μ-plates (ibidi GmbH, Munich, Germany) as described before.[38] “Sandwich” assays in short: bottom wells of cooled Angiogenesis plates were filled with 10 μL 4 mg/mL Matrigel, centrifuged for 20 min 200 g and incubated at 37°C temperature for approximately 30–60 min or until the ECM had polymerized. 1,000–1,500 cells were mixed in 2 mg/mL ECM-medium, and 20 μL of cell suspension was added in each well. The plates were centrifuged for 10 min at 100 g, or until the cells had settled on top of the lower ECM. Finally, the outer wells and side reservoirs were filled with water for humidification, and the culture plates placed into the incubator for 3–4 h or overnight. The following day, 60 μL of cell culture medium were added; refreshed every third day by carefully aspirating the medium.

The next experiment concerns LAPC-4. Kind of experiment: Secondary 3D screen (spheroid size, complexity, cell death). The note with it: yellow and red clusters. The source says:
Next, the 25 selected betulin derivatives depicted in Figs 1–3 including control compounds were again thoroughly tested across the same panel of prostate-derived cell lines already used in the preliminary, 2D high-throughput screen. The resulting dendrograms were either generated separately for each cell line (S4 Fig), combined into a single dendrogram (Fig 5A), or shown as reduced organoid sizes (area; Fig 5B).
Fig 5 Secondary 3D screens. Experimental betulin derivatives and control compounds were tested across a panel of prostate cancer lines (LNCaP, LAPC-4) and non-transformed, prostate epithelial cells (EP156T) in 3D culture. A) The dendrogram is based on three main morphological parameters and combines all data from primary and secondary 3D screens. […] B) Boxplots showing the impact of selected compounds on spheroid size (Area). Data scaling: as described in Fig 4 C) Effects of all betulin derivatives and control compounds on cell death (number of dead cells).
All 3D cultures were done in growth factor-free Matrigel Basement-membrane Matrix (Corning Inc., New York, NY, USA) using 96-well Angiogenesis μ-plates (ibidi GmbH, Munich, Germany) as described before.[38] “Sandwich” assays in short: bottom wells of cooled Angiogenesis plates were filled with 10 μL 4 mg/mL Matrigel, centrifuged for 20 min 200 g and incubated at 37°C temperature for approximately 30–60 min or until the ECM had polymerized. 1,000–1,500 cells were mixed in 2 mg/mL ECM-medium, and 20 μL of cell suspension was added in each well. The plates were centrifuged for 10 min at 100 g, or until the cells had settled on top of the lower ECM. Finally, the outer wells and side reservoirs were filled with water for humidification, and the culture plates placed into the incubator for 3–4 h or overnight. The following day, 60 μL of cell culture medium were added; refreshed every third day by carefully aspirating the medium. This “sandwich” setting allows almost unifocal alignment of cells and 3D structures in a single optical plane, thus reducing the time required for confocal stack imaging.
All control compounds were purchased from Selleck (Munich, Germany), except for staurosporine (Sigma-Aldrich, St. Louis, MO, USA) and Y-27632 (Tocris, Bristol, UK) and dissolved in dimethyl sulfoxide (DMSO) as a vehicle at 10 mM. In the primary and secondary 3D screens, experimental and control compound exposures were performed in triplicates. Four concentrations for each compound were applied (0.03, 0.1, 0.3 and 1 μM). Compound treatments were initiated four days after cell embedding, and continued for six days after which spheroids were stained and imaged.
Supplementary file pone.0126111.s004.eps: S4 Fig Secondary screens. Dendrograms for A) LNCaP, B) LAPC-4, and C) Ep156T betulin screens in 3D culture have been constructed using three main read-outs: spheroid size, spheroid complexity, and cell death. […] (EPS) Click here for additional data file.

The subject of another experiment is PC3 cells. Kind of experiment: Cell morphology and actin cytoskeleton in 2D monolayer culture. As to conditions: PC3, 2D, 72h. As to the method:
As a control, we also tested morphologies treated with the same panel of anti-invasive compounds 4, 5, 6, 16 and 20 as well as betulin (1) on PC3 cells grown in 2D monolayer cultures (S9 Fig).
Supplementary file pone.0126111.s009.tif: S9 Fig Morphologies of PC-3, LNCaP and Ep156T cells in 2D monolayer culture, exposed 72h to selected betulin derivatives. Actin cytoskeleton (filamentous or F- actin) is stained green (LifeAct), nuclei with a red dye (confocal microscope images, 40× objective, scale bar shown for each panel on the right lower corner). (TIF) Click here for additional data file.

In the next experiment the test system is PC-3. The experiment in a line: Wound healing assay in 2D monolayer culture (IncuCyte). As to conditions: example for inactive derivatives. The protocol: Cells were cultured on ImageLock plates (Essen Bioscience, Ann Arbor, MI, USA) until fully confluent and scratched with a WoundMaker instrument (Essen Bioscience). All detached cells were removed by aspiration and medium supplemented with experimental compounds was added. Wound closure was monitored and quantified with the IncuCyte live-cell imager (Essen Bioscience).
A) Graph showing the transition of PC-3 spheroids from symmetrical acini to irregular invasive structures over 6 days, as measured by general symmetry (roundness %). […] B) Conventional wound healing assay performed in monolayer culture over a period of 64 hours. Wound closure is measured as relative wound density i.e. percentage of original wound area reclaimed by migrating cells. […] (EPS) Click here for additional data file.

For `C=C(C)[C@@H]1CC[C@]2(C(=O)N3CCOCC3)CC[C@]3(C)C(CCC4[C@@]5(C)CCC(=O)C(C)(C)C5CC[C@]43C)C12` (stereo partly drawn) [Compound 14], in the experiment with PC-3 cells (6 days treatment), the “anti-invasive effects in 3D culture (in words)” value is reported as “None of these compounds showed significant anti-invasive effects”.

Take `C=C(C)[C@@H]1CC[C@]2(C(N)=O)CC[C@]3(C)C(CCC4[C@@]5(C)Cc6nccnc6C(C)(C)C5CC[C@]43C)C12` (stereo partly drawn) [Compound 16]: in the experiment with PC-3 cells (6 days treatment), the “concentration at which anti-invasive effects are seen in 3D” value is 100 nM and the “anti-invasive effects in 3D culture (in words)” value is “same high level of anti-invasive effects as compound 15”. Further, in the experiment with LAPC-4, the “efficacy in 3D LAPC-4 culture (dendrogram clusters)” value is on record as “most active”. The “morphology and actin cytoskeleton of cells in 2D monolayer” value (“morphology and actin cytoskeleton” below) with PC3 cells was “No morphologies and visible effects on the actin cytoskeleton”.

With `C=C(C)[C@@H]1CC[C@]2(C(=O)N3CCCCC3)CC[C@]3(C)C(CCC4[C@@]5(C)CCC(=O)C(C)(C)C5CC[C@]43C)C12` (stereo partly drawn) [Compound 13], in the experiment with PC-3 cells (6 days treatment), the “anti-invasive effects in 3D culture (in words)” value was “None of these compounds showed significant anti-invasive effects”.

Take `Oc1ccc2ccccc2c1SSc1c(O)ccc2ccccc12` [IPA3, reference compound]: in the experiment with PC3 cells, the “morphology and actin cytoskeleton” value was “clear rounding”.

Consider `C=C(C)[C@@H]1CC[C@]2(C(=O)O)CC[C@]3(C)[C@H](CC[C@@H]4[C@@]5(C)CC[C@H](O)C(C)(C)[C@@H]5CC[C@]43C)[C@@H]12` [Compound 1, betulinic acid], for which the “anti-invasive effects in 3D culture (in words)” value in the experiment on PC-3 cells (6 days treatment) is on record as “did not show significant anti-invasive effects”. The “morphology and actin cytoskeleton” value in the experiment with PC3 cells is “No morphologies and visible effects on the actin cytoskeleton”.

As for `C=C(C)[C@@H]1CC[C@]2(C(=O)N3CCCCC3)CC[C@]3(C)C(CCC4[C@@]5(C)Cc6nccnc6C(C)(C)C5CC[C@]43C)C12` (stereo partly drawn) [Compound 17], the “anti-invasive effects in 3D culture (in words)” value with PC-3 cells (6 days treatment) was “inactive”.

For `C=C(C)[C@@H]1CC[C@]2(CO)CC[C@]3(C)C(CCC4[C@@]5(C)Cc6cnoc6C(C)(C)C5CC[C@]43C)C12` (stereo partly drawn) [Compound 10], the “anti-invasive effects in 3D culture (in words)” value in the experiment on PC-3 cells (6 days treatment) is reported as “negligible effects on the invasive phenotype”.

With `C=C(C)[C@@H]1CC[C@]2(C(=O)N3CCCCC3)CC[C@]3(C)C(CCC4[C@@]5(C)CC[C@H](O)C(C)(C)C5CC[C@]43C)C12` (stereo partly drawn) [Compound 21], the “activity in validation (wound healing) in words” value in the experiment on PC-3 was “inactive”.

Take `C=C(C)[C@@H]1CC[C@]2(C=O)CC[C@]3(C)C(CCC4[C@@]5(C)Cc6cnoc6C(C)(C)C5CC[C@]43C)C12` (stereo partly drawn) [Compound 7]: in the experiment with PC-3 cells (6 days treatment), the “anti-invasive effects in 3D culture (in words)” value is on record as “negligible effects on the invasive phenotype”.

In the case of `C=C(C)[C@@H]1CC[C@]2(C(=O)NCCC)CC[C@]3(C)C(CCC4[C@@]5(C)CCC(=O)C(C)(C)C5CC[C@]43C)C12` (stereo partly drawn) [Compound 12], in the experiment on PC-3 cells (6 days treatment), the “anti-invasive effects in 3D culture (in words)” value is “None of these compounds showed significant anti-invasive effects”.

As to `C[C@@H](N)[C@H]1CC[C@H](C(=O)Nc2ccncc2)CC1` [Compound Y-27632, reference compound], the “morphology and actin cytoskeleton” value in the experiment on PC3 cells was “elongation”.

As to `C=C(C)[C@@H]1CC[C@]2(C#N)CC[C@]3(C)C(CCC4[C@@]5(C)Cc6nccnc6C(C)(C)C5CC[C@]43C)C12` (stereo partly drawn) [Compound 18, Lupa-2,20(29)-dieno[2,3-b]pyrazino-28-nitrile], the “anti-invasive effects in 3D culture (in words)” value with PC-3 cells (6 days treatment) is “inactive”.

As for `C=C(C)[C@@H]1CC[C@]2(COC(C)=O)CC[C@]3(C)C(CCC4[C@@]5(C)Cc6cnoc6C(C)(C)C5CC[C@]43C)C12` (stereo partly drawn) [Compound 8], the “anti-invasive effects in 3D culture (in words)” value with PC-3 cells (6 days treatment) is given as “negligible effects on the invasive phenotype”.

For the compound `C=C(C)[C@@H]1CC[C@]2(C(=O)N3CCCC3)CC[C@]3(C)C(CCC4[C@@]5(C)CCC(=O)C(C)(C)C5CC[C@]43C)C12` (stereo partly drawn) [Compound 11], the “anti-invasive effects in 3D culture (in words)” value with PC-3 cells (6 days treatment) is “None of these compounds showed significant anti-invasive effects”.

For the compound `C=C(C)[C@@H]1CC[C@]2(C(N)=O)CC[C@]3(C)C(CCC4[C@@]5(C)Cc6cnoc6C(C)(C)C5CC[C@]43C)C12` (stereo partly drawn) [Compound 9], in the experiment with PC-3 cells (6 days treatment), the “anti-invasive effects in 3D culture (in words)” value is recorded as “negligible effects on the invasive phenotype”.

As to `C[C@]12CC[C@H](O)CC1=CC[C@@H]1[C@@H]2CC[C@]2(C)C(c3cccnc3)=CC[C@@H]12` [abiraterone, reference compound], the “effect on morphometric measures (area, complexity, dead cells)” value in the experiment with PC-3 cells (paclitaxel at 30 and 100 nM) is “no noticeable effect”. For the same compound, the “efficacy in 3D LAPC-4 culture (dendrogram clusters)” value with LAPC-4 is on record as “efficacy of all positive controls”.
